Where no end group is shown, it is not given here.
Tests used:
MRSA T144 [1] = type: cell-based, Staphylococcus aureus
Description: (§1) The MICs of all drugs were determined by micro-broth dilution method according to CLSI 2018 guidelines. Briefly, a single colony of the bacterial strain was transferred to 1 mL of Mueller Hilton broth (MHB) and overnight at 37 °C and then 10 μL were cultured in a new 1 mL medium for 4 to 6 h, and then the bacterial culture at the logarithmic phase was diluted to 1 × 10^6 CFUs/mL. The assay was performed by adding 100 μL of each peptide solution at various concentrations (0.25 to 128 μg/mL) and 100 μL of diluted bacterial culture to different wells of a 96-well microtiter plate (Corning, NY, USA). After incubation at 37 °C for 16 to 18 h and then read its MIC value. MIC value is defined as the lowest drug concentration without visible bacteria.
(§2) Then, the antibacterial activity of the peptides affected by different temperatures and pH were determined according to the determination steps of MICs test.
(§3) In MHB medium, Na^+, K^+, Mg^2+ and Ca^2+ with the final concentrations of 10 mM, fetal bovine serum, plasma or DMEM medium (Hyclone, Logan, UT, USA) with the final concentrations of 10% was added, and then MIC values were measured to evaluate the effects of different cations, serum and plasma on the antibacterial activity of peptides.
(§4) The peptide was incubated with protease (pepsin, trypsin and papain) (Solarbio, Beijing, China) with a final concentration of 1 mg/mL at 37 °C for 1 h, then the mixture of peptide and protease was heated at 100 °C for 30 min, then centrifuged at 13,000× g for 30 min, and the supernatant was taken for MIC determination.

[2] = system: P. cibarius HNCF44W (blaNDM-1+ tet(X6)); experiment: organism not typed; type: cell-based
Description: (§5) S. aureus ATCC 29213, E. coli ATCC 25922, S. enteritidis ATCC 13076 and A. baumannii ATCC 19609 were obtained from the American Type Culture Collection (ATCC). The remaining strains used in the experiment were all preserved strains in our laboratory. All strains were cultured in nutrient broth overnight to the logarithmic phase at 37 °C prior to each experiment.
as §1

E. coli B2 = type: cell-based
Description: as §1, §2, §3, §4

MRSA 1530 = experiment: microbe, parasite or virus in culture; type: cell-based, Staphylococcus aureus; conditions: 1530
Description: as §5, §1

MRSA T144 [3] = experiment: microbe, parasite or virus in culture; type: cell-based, Staphylococcus aureus; conditions: T144
Description: as §5, §1

E. coli B3-1 (tet(X4)) = experiment: microbe, parasite or virus in culture; type: cell-based; conditions: B3-1 (tet(X4))
Description: as §5, §1

[4] = system: P. aeruginosa (VIM + tmexCD1-torJ1); experiment: microbe, parasite or virus in culture; type: cell-based; conditions: VIM + tmexCD1-torJ1
Description: as §5, §1

[5] = system: E. faecalis A4 (VRE, VanA); experiment: microbe, parasite or virus in culture; type: cell-based; conditions: A4 (VRE, VanA)
Description: as §5, §1

E. coli C3 (blaNDM-1) = experiment: microbe, parasite or virus in culture; type: cell-based; conditions: C3 (blaNDM-1)
Description: as §5, §1

E. coli G92 (mcr-1) = experiment: microbe, parasite or virus in culture; type: cell-based; conditions: G92 (mcr-1)
Description: as §5, §1

S. aureus ATCC 29213 = experiment: microbe, parasite or virus in culture; type: cell-based; conditions: ATCC 29213
Description: as §5, §1

E. coli ATCC 25922 = experiment: microbe, parasite or virus in culture; type: cell-based; conditions: ATCC 25922
Description: as §5, §1

P. aeruginosa PA14 = experiment: microbe, parasite or virus in culture; type: cell-based; conditions: PA14
Description: as §5, §1

E. coli G6 (blaNDM-5) = experiment: microbe, parasite or virus in culture; type: cell-based; conditions: G6 (blaNDM-5)
Description: as §5, §1

[6] = system: E. coli B2 (blaNDM-5 + mcr-1); experiment: microbe, parasite or virus in culture; type: cell-based; conditions: B2 (blaNDM-5 + mcr-1)
Description: as §5, §1

[7] = system: S. enteritidis ATCC 13076; experiment: microbe, parasite or virus in culture; type: cell-based; conditions: ATCC 13076
Description: as §5, §1

S. aureus G16 (RIF^R) = experiment: microbe, parasite or virus in culture; type: cell-based; conditions: S. aureus G16 (RIF^R); micro-broth dilution CLSI 2018, MHB, 37 °C, 16 to 18 h
Description: as §5, §1

[8] = system: S. aureus 215 (cfr + LZD^R); experiment: microbe, parasite or virus in culture; type: cell-based; conditions: S. aureus 215 (cfr + LZD^R); micro-broth dilution CLSI 2018, MHB, 37 °C, 16 to 18 h
Description: as §5, §1

A. baumannii ATCC 19609 = experiment: microbe, parasite or virus in culture; type: cell-based; conditions: ATCC 19609
Description: as §5, §1

E. coli 1F28 (tet(X4)) = experiment: microbe, parasite or virus in culture; type: cell-based; conditions: 1F28 (tet(X4))
Description: as §5, §1

E. coli CP131 (mcr-3) = experiment: microbe, parasite or virus in culture; type: cell-based; conditions: CP131 (mcr-3)
Description: as §5, §1

Sequence: GWKKFFKKWKHVWK [GK-4]
- MIC after treatment at 121 °C (MRSA T144 [1]; T144): 4 µg/mL
- MIC in DMEM (10%) (MRSA T144 [1]; T144): 2 µg/mL
- MIC in Plasma (10%) (MRSA T144 [1]; T144): 4 µg/mL
- MIC in Serum (10%) (MRSA T144 [1]; T144): 8 µg/mL
- MIC in presence of Ca^2+ (MRSA T144 [1]; T144): >128 µg/mL
- MIC in presence of K^+ (MRSA T144 [1]; T144): 4 µg/mL
- MIC in presence of Mg^2+ (MRSA T144 [1]; T144): 8 µg/mL
- MIC in presence of Na^+ (MRSA T144 [1]; T144): 2 µg/mL
- MIC, Control (MRSA T144 [1]; T144): 4 µg/mL
- MIC after Papain treatment (MRSA T144 [1]; T144, 1 h): >128 µg/mL
- MIC after Trypsin treatment (MRSA T144 [1]; T144, 1 h): >128 µg/mL
- MIC after treatment at 40 °C (MRSA T144 [1]; T144, 1 h): 2 µg/mL
- MIC after treatment at 60 °C (MRSA T144 [1]; T144, 1 h): 2 µg/mL
- MIC after treatment at 80 °C (MRSA T144 [1]; T144, 1 h): 2 µg/mL
- MIC after treatment at 100 °C (MRSA T144 [1]; T144, 1 h): 4 µg/mL
- MIC after treatment at pH 2 (MRSA T144 [1]; T144, 1 h, pH 2): 4 µg/mL
- MIC after treatment at pH 4 (MRSA T144 [1]; T144, 1 h, pH 4): 4 µg/mL
- MIC after treatment at pH 6 (MRSA T144 [1]; T144, 1 h, pH 6): 4 µg/mL
- MIC after treatment at pH 8 (MRSA T144 [1]; T144, 1 h, pH 8): 4 µg/mL
- MIC after treatment at pH 10 (MRSA T144 [1]; T144, 1 h, pH 10): 4 µg/mL
- MIC after treatment at pH 12 (MRSA T144 [1]; T144, 1 h, pH 12): 4 µg/mL
- MIC [2]: 4 µg/mL
- MIC after treatment at 121 °C (E. coli B2; B2): 2 µg/mL
- MIC in DMEM (10%) (E. coli B2; B2): 4 µg/mL
- MIC in Plasma (10%) (E. coli B2; B2): 2 µg/mL
- MIC in Serum (10%) (E. coli B2; B2): 4 µg/mL
- MIC in presence of Ca^2+ (E. coli B2; B2): >128 µg/mL
- MIC in presence of K^+ (E. coli B2; B2): 2 µg/mL
- MIC in presence of Mg^2+ (E. coli B2; B2): 32 µg/mL
- MIC in presence of Na^+ (E. coli B2; B2): 2 µg/mL
- MIC, Control (E. coli B2; B2): 2 µg/mL
- MIC after Papain treatment (E. coli B2; B2, 1 h): >128 µg/mL
- MIC after Pepsin treatment (E. coli B2; B2, 1 h): 2 µg/mL
- MIC after Trypsin treatment (E. coli B2; B2, 1 h): >128 µg/mL
- MIC after treatment at 40 °C (E. coli B2; B2, 1 h): 2 µg/mL
- MIC after treatment at 60 °C (E. coli B2; B2, 1 h): 2 µg/mL
- MIC after treatment at 80 °C (E. coli B2; B2, 1 h): 2 µg/mL
- MIC after treatment at 100 °C (E. coli B2; B2, 1 h): 2 µg/mL
- MIC after treatment at pH 2 (E. coli B2; B2, 1 h, pH 2): 1 µg/mL
- MIC after treatment at pH 4 (E. coli B2; B2, 1 h, pH 4): 1 µg/mL
- MIC after treatment at pH 6 (E. coli B2; B2, 1 h, pH 6): 2 µg/mL
- MIC after treatment at pH 8 (E. coli B2; B2, 1 h, pH 8): 1 µg/mL
- MIC after treatment at pH 10 (E. coli B2; B2, 1 h, pH 10): 1 µg/mL
- MIC after treatment at pH 12 (E. coli B2; B2, 1 h, pH 12): 2 µg/mL
- MIC (MRSA 1530): 16 µg/mL
- MIC (MRSA T144 [3]): 4 µg/mL
- MIC (E. coli B3-1 (tet(X4))): 4 µg/mL
- MIC [4]: 16 µg/mL
- MIC [5]: 16 µg/mL
- MIC (E. coli C3 (blaNDM-1)): 2 µg/mL
- MIC (E. coli G92 (mcr-1)): 4 µg/mL
- MIC (S. aureus ATCC 29213): 4 µg/mL
- MIC (E. coli ATCC 25922): 8 µg/mL
- MIC (P. aeruginosa PA14): 16 µg/mL
- MIC (E. coli G6 (blaNDM-5)): 4 µg/mL
- MIC [6]: 2 µg/mL
- MIC [7]: 4 µg/mL
- MIC (S. aureus G16 (RIF^R)): 8 µg/mL
- MIC [8]: 8 µg/mL
- MIC (A. baumannii ATCC 19609): 4 µg/mL
- MIC (E. coli 1F28 (tet(X4))): 16 µg/mL
- MIC (E. coli CP131 (mcr-3)): 2 µg/mL

Source: paper PMC9610943, “Truncated Pleurocidin Derivative with High Pepsin Hydrolysis Resistance to Combat Multidrug-Resistant Pathogens” (Pharmaceutics, 2022)
